Data from patent US7781580B2, “Stilbene derivatives as new cancer therapeutic agents” (Virginia Commonwealth University, priority 2007, dated 2010).

What was measured:
[1] = tested on: MDA-MB231 breast cancer cells; test: cell cycle analysis, MDA-MB231; format: cell-based; settings: 16 hours
Experimental: Cells were treated with various concentrations of stilbene 4a or CA4 for 16 hours followed by PI staining and FACscan analysis. […] A unique feature of stilbene 4a was noted when cells were treated with 30 nM.
Due to the structural similarity between stilbene 4a and CA4, we investigated the difference in the biological activity of these two compounds in MDA-MB231 breast cancer cells and their Chk2−/− derivatives. […] MDA-MB231 cells were treated with 10 nM stilbene 4a or 1 nM CA4. […] However, a difference in cell cycle change was observed following treatment with 30 nM of stilbene 4a versus 3 nM of CA4. […] This was also the case for cells treated with 100 nM stilbene 4a. A significant subG1/0 population was also noted. […] One possible effect could be a DNA damage response, which is a common mechanism of multiple chemotherapeutic agents but not one of pure microtubule-interfering agents such a paclitaxel or vincristine. […] We then obtained conditional Chk1−/− and Chk2−/− cells, which were derived from the same MDA-MB231 cells for the same flow cytometry analysis. […] In contrast, Chk2−/− cells were more sensitive to stilbene 4a. […] This mechanism is not obvious in higher drug concentrations at which the G2 arrest from microtubule interference is dominant. Therefore, in addition to their microtubule interfering effect, stilbenes have another mechanism to induce cell death. Thus, the use of a Chk2 inhibitor in combination with stilbenes may be a viable approach to enhancing the beneficial therapeutic effects of stilbenes.

[2] = tested on: UCI101 ovarian cancer cells (xenograft); test: UCI101 xenograft in nude mice; format: in vivo; settings: mouse, in vivo
Experimental: (a) In vitro sensitivity of UCI101 cells toward three potential stilbene prodrugs, 5a-c, was tested in 96-well plates using Alamar Blue™ assays to determine cell growth inhibition. […] (b) 5b induces cell cycle change and apoptosis in UCI101 cells. Cells were incubated with 5b at 1, 3, 10 μM for 16 hours followed by PI staining and flow cytometry analysis. A subG0/1 population, representing apoptotic cells, appeared along with a decrease of the G1/G2 ratio after cells were treated with 3 μM 5b. Higher concentration (10 μM) of 5b completely killed cells, as was the case with stilbene 4a at […]. (c) Cells treated with stilbene 4a and 5b were stained with phospho-histone 3B, a mitotic marker. The positive signals of phospho-histone 3B were shown in green and nuclei were stained with DAPI in blue. […] (d) In vivo efficacy of 5b compared with stilbene 4a. Nude mice were injected with UCI101 ovarian cancer cells and treated with 7 doses of 5b,c or stilbene 4a every 2-3 days. Tumor volume was calculated and plotted against days.
We next tested whether 5b could be converted into stilbene 4a in circulation. […] Blood was collected at 20, 60 and 240 min after injection for spot check of stilbene 4a level in serum. […] The in vivo efficacy of 5b and 5c was compared to stilbene 4a in a pilot study using 5 mice in each group.

UCI101 cells = test: immunofluorescent staining of tubulin, UCI101; format: cell-based; settings: CA4 10 nM, stilbene 4a 100 nM, 5b 3 μM; 16 hours
Text: Nuclei were stained with DAPI.

Tubulin (>99% pure) = test: tubulin polymerization assay (OD 340 nm); format: biochemical; settings: OD340 nm; nocodazole and paclitaxel 10 μM
[3] = tested on: c-kit positive marrow progenitor cells; test: bone marrow c-kit-positive progenitor cells: cell cycle and colony forming assay; format: cell-based
Experimental: FIG. 16. (a) Effect of stilbenes in normal bone marrow progenitor cells. c-kit-positive bone marrow mononuclear cells were isolated for incubation with stilbenes 4a or 4c at 0.1 or 0.5 […] for 16 hours. Cells were harvested for fixation and PI staining. Cell cycle analysis and quantification of the subG0/1 population were analyzed by FACScan flow cytometry. The percentages of the apoptotic population were indicated. Shown are the representatives of two independent experiments. (b) Effect of stilbenes in HL60 cells as positive control. HL60 cells were treated with stilbenes 4a or 4c in the same medium as the positive control. (c) Colony forming assay of the stilbene-treated c-kit-positive cells. A fraction of the cells in (a) were diluted and plated on methylcellulose medium at various densities. Cells were incubated for 14 days and the grossly visible colonies were counted. […] Isolated bone marrow c-kit-positive progenitor cells were incubated with DMSO or stilbenes 4a or 4c at 0.1 or 0.5 μM for 16 hours and injected into tail veins of CD45 congenic mice lethally irradiated with 1200 cGy. Mice were monitored for survival and lineage-specific donor engraftment by flow cytometry analysis of peripheral blood. The percentage of donor cells in T, B, and granulocytic series of the recipients were studied at 7 and 14 weeks after transplantation. Stilbene treated c-Kit progenitor cells had the same percentage as the DMSO treated control in all series.
Mouse bone marrow was harvested from femur and tibia of […], subjected to red blood cell lysis, and labeled with anti-c-kit (3C11; CALTAG Laboratories, Burlingame, Calif.) and streptavidin-conjugated microbeads for MACS separation (Miltenyi Biotech, Auburn, Calif.). The c-kit positive marrow progenitor cells were incubated in Iscove's Modified Eagle's Media supplemented with 30% fetal bovine serum, erythropoietin, stem cell factor and interleukin-3 with or without stilbenes 4a or 4c. The ability of long-term proliferation of the c-kit-positive cells was evaluated with colony forming assay. Cells were first treated with DMSO, stilbenes 4a or 4c for 5 h and a fraction of the cells (4000 cells) were plated in the same enriched culture media with methylcellulose for colony forming assays. The grossly visible colonies were counted after 14 days of incubation.

With COc1cc(/C=C\c2ccc(OC)c(N)c2)cc(OC)c1 [4a, (Z)-5-[2-(3,5-Dimethoxy-phenyl)-vinyl]-2-methoxy-phenylamine] the “cell cycle change at 30 nM” value ([1]; 30 nM) was “induced some degree of G2 arrest, but the ratio of G1/G2 did not reverse”, the “cell cycle change at 10 nM stilbene 4a or 1 nM CA4” value [1] was “No change was observed” and the mouse weight [2] was “did not show any significant change”. The microtubule pattern (UCI101 cells) was “partial disruption of microtubules”, the “effect on tubulin polymerization” value (Tubulin (>99% pure)) was “suppressed polymerization in a dose-dependent manner” and the “toxicity to normal bone marrow progenitor cells versus leukemia cells” value [3] was “much less toxic to normal bone marrow progenitor cells”. The “cell cycle of marrow progenitor cells at 0.1 μM” value ([3]; 0.1 μM, 16 hours) was “increased the subG0/1 and G2 population slightly” and the “cell cycle of marrow progenitor cells at 0.5 μM” value ([3]; 0.5 μM, 16 hours) was “increased the subG0/1 and G2 population slightly”.
